Experimental data reported in ChEMBL document CHEMBL1909046, “DrugMatrix in vitro pharmacology data”.

How the values were obtained:
[1] = DRUGMATRIX: Interleukin IL-1 radioligand binding (ligand: [125I] interleukin 1beta); type: cell membranes, Membrane; conditions: nih3t3; Not Active = under 50% inhibition at 10 µM
[2] = DRUGMATRIX: Potassium Channel [KATP] radioligand binding (ligand: [3H] Glyburide); type: cell membranes, Membrane; conditions: hit-t15; Not Active = under 50% inhibition at 10 µM
Interstitial collagenase = target: T1, Interstitial collagenase (Homo sapiens, UniProt P03956); assay: biochemical; type: tissue-based, Rheumatoid synovial fibroblasts;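 further: MMP-1 enzyme inhibition assay using a peptide substrate; in other assays of this panel Not Active means under 50% inhibition at 10 µM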
T1 sequence (P03956 whole entry): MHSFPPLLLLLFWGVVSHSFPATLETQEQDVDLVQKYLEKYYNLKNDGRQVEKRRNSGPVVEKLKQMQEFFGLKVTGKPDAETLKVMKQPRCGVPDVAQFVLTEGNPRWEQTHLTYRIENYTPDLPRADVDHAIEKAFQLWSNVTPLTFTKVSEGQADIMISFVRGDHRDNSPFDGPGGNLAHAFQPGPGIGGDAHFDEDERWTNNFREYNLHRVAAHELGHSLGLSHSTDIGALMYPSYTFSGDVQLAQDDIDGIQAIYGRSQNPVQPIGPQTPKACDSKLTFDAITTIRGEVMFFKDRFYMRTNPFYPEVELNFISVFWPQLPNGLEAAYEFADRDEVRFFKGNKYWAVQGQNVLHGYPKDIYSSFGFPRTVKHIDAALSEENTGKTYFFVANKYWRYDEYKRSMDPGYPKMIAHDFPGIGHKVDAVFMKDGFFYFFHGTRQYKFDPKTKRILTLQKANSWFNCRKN

Progesterone receptor = target: T2, Progesterone receptor (Bos taurus, UniProt Q690N0); assay: DRUGMATRIX: Progesterone radioligand binding (ligand: [3H] R-5020); type: tissue-based, Uterus; conditions: Not Active = under 50% inhibition at 10 µM
T2 sequence (Q690N0 whole entry): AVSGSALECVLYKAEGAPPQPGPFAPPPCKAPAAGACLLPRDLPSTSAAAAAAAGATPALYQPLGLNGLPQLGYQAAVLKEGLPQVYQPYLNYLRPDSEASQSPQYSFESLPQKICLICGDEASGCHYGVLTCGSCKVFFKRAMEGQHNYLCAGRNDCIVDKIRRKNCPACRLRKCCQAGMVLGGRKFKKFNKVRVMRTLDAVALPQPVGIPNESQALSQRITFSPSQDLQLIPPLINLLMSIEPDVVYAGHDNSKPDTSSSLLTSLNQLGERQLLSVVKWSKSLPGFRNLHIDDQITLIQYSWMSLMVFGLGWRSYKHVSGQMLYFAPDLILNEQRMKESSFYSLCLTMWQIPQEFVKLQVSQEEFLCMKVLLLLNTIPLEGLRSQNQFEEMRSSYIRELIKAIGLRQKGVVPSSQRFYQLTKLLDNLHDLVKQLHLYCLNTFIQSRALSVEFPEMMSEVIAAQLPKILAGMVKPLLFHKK

Cytochrome P450 2C9 = Cytochrome P450 2C9 (Homo sapiens, UniProt P11712); conditions: bti-tn-5b1-4; further: in other assays of this panel Not Active means under 50% inhibition at 10 µM
Chain of Cytochrome P450 2C9 (P11712 whole entry): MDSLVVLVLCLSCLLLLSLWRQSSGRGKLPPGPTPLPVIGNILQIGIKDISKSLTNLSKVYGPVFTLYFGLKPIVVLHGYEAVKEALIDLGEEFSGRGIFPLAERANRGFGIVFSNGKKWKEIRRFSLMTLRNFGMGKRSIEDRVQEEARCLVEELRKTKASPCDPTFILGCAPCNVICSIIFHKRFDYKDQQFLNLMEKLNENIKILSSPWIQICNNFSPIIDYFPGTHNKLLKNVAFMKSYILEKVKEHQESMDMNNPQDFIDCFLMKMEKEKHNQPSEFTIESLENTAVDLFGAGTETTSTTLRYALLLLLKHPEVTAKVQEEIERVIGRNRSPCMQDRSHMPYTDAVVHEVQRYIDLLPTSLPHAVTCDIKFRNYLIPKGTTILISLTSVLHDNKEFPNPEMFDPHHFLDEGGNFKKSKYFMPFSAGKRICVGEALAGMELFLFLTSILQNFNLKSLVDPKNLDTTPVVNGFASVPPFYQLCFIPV

[3] = target: T3, Alpha-1A adrenergic receptor (Rattus norvegicus, UniProt P43140); assay: DRUGMATRIX: Alpha-1A adrenergic receptor radioligand binding (ligand: prazosin); type: cell membranes, Wistar, Submaxillary gland, Membrane; conditions: Not Active = under 50% inhibition at 10 µM
T3 sequence (P43140 whole entry): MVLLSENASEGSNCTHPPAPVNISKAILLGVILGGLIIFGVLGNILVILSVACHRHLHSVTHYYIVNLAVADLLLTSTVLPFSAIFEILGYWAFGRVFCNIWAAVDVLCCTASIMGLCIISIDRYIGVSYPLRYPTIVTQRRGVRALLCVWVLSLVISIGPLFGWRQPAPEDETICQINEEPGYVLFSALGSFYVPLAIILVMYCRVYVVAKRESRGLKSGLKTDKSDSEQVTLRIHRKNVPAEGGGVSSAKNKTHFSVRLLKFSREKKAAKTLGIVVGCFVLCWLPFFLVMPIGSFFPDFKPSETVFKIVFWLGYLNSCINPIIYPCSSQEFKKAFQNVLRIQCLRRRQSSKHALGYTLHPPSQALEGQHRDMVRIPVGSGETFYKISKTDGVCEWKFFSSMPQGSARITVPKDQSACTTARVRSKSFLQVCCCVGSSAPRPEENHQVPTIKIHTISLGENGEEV

Cytochrome P450 2C19 = Cytochrome P450 2C19 (Homo sapiens, UniProt P33261); conditions: bti-tn-5b1-4; further: in other assays of this panel Not Active means under 50% inhibition at 10 µM
Chain of Cytochrome P450 2C19 (P33261 whole entry): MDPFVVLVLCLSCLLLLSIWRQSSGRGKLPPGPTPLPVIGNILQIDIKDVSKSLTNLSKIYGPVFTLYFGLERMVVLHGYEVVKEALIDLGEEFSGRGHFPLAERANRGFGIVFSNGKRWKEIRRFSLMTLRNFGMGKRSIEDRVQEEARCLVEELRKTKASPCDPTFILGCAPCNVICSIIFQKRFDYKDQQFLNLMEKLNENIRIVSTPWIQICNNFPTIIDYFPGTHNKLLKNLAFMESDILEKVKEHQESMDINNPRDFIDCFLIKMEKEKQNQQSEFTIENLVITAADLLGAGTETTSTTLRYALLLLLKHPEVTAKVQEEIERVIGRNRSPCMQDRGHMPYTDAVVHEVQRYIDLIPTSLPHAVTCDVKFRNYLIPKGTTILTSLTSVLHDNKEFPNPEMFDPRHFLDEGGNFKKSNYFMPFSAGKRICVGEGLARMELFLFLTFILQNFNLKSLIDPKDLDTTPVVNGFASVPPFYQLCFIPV

[4] = DRUGMATRIX: Glutamate, Kainate radioligand binding (ligand: [3H] Kainic acid); type: cell membranes, Rattus norvegicus, Wistar, Brain, Membrane; conditions: Not Active = under 50% inhibition at 10 µM

CN(Cc1cc(Br)cc(Br)c1N)C1CCCCC1 [BROMHEXINE]
Not Active: IC50 [1] | Ki [1] | IC50 [2] | Ki [2] | IC50 (Interstitial collagenase) | IC50 (Progesterone receptor) | IC50 (Cytochrome P450 2C9) | Ki (Cytochrome P450 2C9) | IC50 [3] | IC50 (Cytochrome P450 2C19) | Ki (Cytochrome P450 2C19) | IC50 [4] | Ki [4]

COPPER(II) OXIDE
Not Active: IC50 [1] | Ki [1] | IC50 [2] | Ki [2] | IC50 (Interstitial collagenase) | Ki (Interstitial collagenase) | IC50 (Progesterone receptor) | Ki (Progesterone receptor) | IC50 (Cytochrome P450 2C9) | Ki (Cytochrome P450 2C9) | IC50 [3] | Ki [3] | IC50 (Cytochrome P450 2C19) | Ki (Cytochrome P450 2C19) | IC50 [4] | Ki [4]

CCN1C[C@]2(COC)[C@H](O)C[C@H](OC)[C@@]34[C@@H]5C[C@@]6(O)[C@H](OC(=O)c7ccccc7)[C@@H]5[C@@](OC(C)=O)([C@@H]([C@H](OC)[C@H]23)[C@@H]14)[C@@H](O)[C@@H]6OC [ACONITINE]
Not Active: IC50 [1] | Ki [1] | IC50 [2] | Ki [2] | IC50 (Interstitial collagenase) | IC50 (Progesterone receptor) | IC50 (Cytochrome P450 2C9) | Ki (Cytochrome P450 2C9) | IC50 [3] | IC50 (Cytochrome P450 2C19) | Ki (Cytochrome P450 2C19) | IC50 [4] | Ki [4]

COc1ccc(C[C@H](N)C(=O)N[C@H]2[C@@H](O)[C@H](n3cnc4c(N(C)C)ncnc43)O[C@@H]2CO)cc1 [PUROMYCIN]
Not Active: IC50 [1] | Ki [1] | IC50 [2] | Ki [2] | IC50 (Interstitial collagenase) | IC50 (Progesterone receptor) | IC50 (Cytochrome P450 2C9) | Ki (Cytochrome P450 2C9) | IC50 [3] | IC50 (Cytochrome P450 2C19) | Ki (Cytochrome P450 2C19) | IC50 [4] | Ki [4]

OC[C@H]1OC2C3[C@@H](CO)OC(O[C@H]4[C@H](O)[C@@H](O)[C@@H](O[C@H]5[C@H](O)[C@@H](O)[C@@H](O[C@H]6[C@H](O)[C@@H](O)[C@@H](O[C@H]7[C@H](O)[C@@H](O)[C@@H](O[C@H]8[C@H](O)[C@@H](O)[C@@H](O[C@H]9[C@H](O)[C@@H](O)C(OC1[C@H](O)[C@H]2O)O[C@@H]9CO)O[C@@H]8CO)O[C@@H]7CO)O[C@@H]6CO)O[C@@H]5CO)O[C@@H]4CO)[C@H](O)[C@H]3O
Not Active: IC50 [1] | Ki [1] | IC50 [2] | Ki [2] | IC50 (Interstitial collagenase) | IC50 (Progesterone receptor) | IC50 (Cytochrome P450 2C9) | Ki (Cytochrome P450 2C9) | IC50 [3] | IC50 (Cytochrome P450 2C19) | Ki (Cytochrome P450 2C19) | IC50 [4] | Ki [4]

C[N+](C)(C)CCOP(=O)([O-])OC[C@H](O)CO
Not Active: IC50 [1] | Ki [1] | IC50 [2] | Ki [2] | IC50 (Interstitial collagenase) | IC50 (Progesterone receptor) | IC50 (Cytochrome P450 2C9) | Ki (Cytochrome P450 2C9) | IC50 [3] | IC50 (Cytochrome P450 2C19) | Ki (Cytochrome P450 2C19) | IC50 [4] | Ki [4]

COc1cc(/C=C/C(=O)O)ccc1O [FERULATE]
Not Active: IC50 [1] | Ki [1] | IC50 [2] | Ki [2] | IC50 (Interstitial collagenase) | IC50 (Progesterone receptor) | IC50 (Cytochrome P450 2C9) | Ki (Cytochrome P450 2C9) | IC50 [3] | IC50 (Cytochrome P450 2C19) | Ki (Cytochrome P450 2C19) | IC50 [4] | Ki [4]

NC(=O)NC(=O)Cc1ccccc1 [PHENACEMIDE]
Not Active: IC50 [1] | Ki [1] | IC50 [2] | Ki [2] | IC50 (Interstitial collagenase) | IC50 (Progesterone receptor) | IC50 (Cytochrome P450 2C9) | Ki (Cytochrome P450 2C9) | IC50 [3] | IC50 (Cytochrome P450 2C19) | Ki (Cytochrome P450 2C19) | IC50 [4] | Ki [4]

NC(=O)CN1CCCC1=O
Not Active: IC50 [1] | Ki [1] | IC50 [2] | Ki [2] | IC50 (Interstitial collagenase) | IC50 (Progesterone receptor) | IC50 (Cytochrome P450 2C9) | Ki (Cytochrome P450 2C9) | IC50 [3] | IC50 (Cytochrome P450 2C19) | Ki (Cytochrome P450 2C19) | IC50 [4] | Ki [4]

CC(C)Cn1cnc2c(N)nc3ccccc3c21 [IMIQUIMOD]
Not Active: IC50 [1] | Ki [1] | IC50 [2] | Ki [2] | IC50 (Interstitial collagenase) | IC50 (Progesterone receptor) | IC50 (Cytochrome P450 2C9) | Ki (Cytochrome P450 2C9) | IC50 [3] | IC50 (Cytochrome P450 2C19) | Ki (Cytochrome P450 2C19) | IC50 [4] | Ki [4]

CCO [ALCOHOL]
Not Active: IC50 [1] | Ki [1] | IC50 [2] | Ki [2] | IC50 (Interstitial collagenase) | IC50 (Progesterone receptor) | IC50 (Cytochrome P450 2C9) | Ki (Cytochrome P450 2C9) | IC50 [3] | IC50 (Cytochrome P450 2C19) | Ki (Cytochrome P450 2C19) | IC50 [4] | Ki [4]

C[C@H](C(=O)O)c1ccc2oc(-c3ccc(F)cc3)nc2c1 [FLUNOXAPROFEN]
Not Active: IC50 [1] | Ki [1] | IC50 [2] | Ki [2] | IC50 (Interstitial collagenase) | IC50 (Progesterone receptor) | IC50 (Cytochrome P450 2C9) | Ki (Cytochrome P450 2C9) | IC50 [3] | IC50 (Cytochrome P450 2C19) | Ki (Cytochrome P450 2C19) | IC50 [4] | Ki [4]

O=C(O)c1ccccc1 [BENZOIC ACID]
Not Active: IC50 [1] | Ki [1] | IC50 [2] | Ki [2] | IC50 (Interstitial collagenase) | IC50 (Progesterone receptor) | IC50 (Cytochrome P450 2C9) | Ki (Cytochrome P450 2C9) | IC50 [3] | IC50 (Cytochrome P450 2C19) | Ki (Cytochrome P450 2C19) | IC50 [4] | Ki [4]

O=c1[nH]cnc2c1ncn2[C@H]1CC[C@@H](CO)O1 [DIDANOSINE]
Not Active: IC50 [1] | Ki [1] | IC50 [2] | Ki [2] | IC50 (Interstitial collagenase) | IC50 (Progesterone receptor) | IC50 (Cytochrome P450 2C9) | Ki (Cytochrome P450 2C9) | IC50 [3] | IC50 (Cytochrome P450 2C19) | Ki (Cytochrome P450 2C19) | IC50 [4] | Ki [4]

CC(C)(c1ccc(O)cc1)c1ccc(O)cc1 [BISPHENOL A]
Not Active: IC50 [1] | Ki [1] | IC50 [2] | Ki [2] | IC50 (Interstitial collagenase) | IC50 (Progesterone receptor) | IC50 (Cytochrome P450 2C9) | Ki (Cytochrome P450 2C9) | IC50 [3] | IC50 (Cytochrome P450 2C19) | Ki (Cytochrome P450 2C19) | IC50 [4] | Ki [4]

ClC1=C(Cl)[C@]2(Cl)[C@@H]3[C@@H]4C[C@@H]([C@H]5O[C@@H]45)[C@@H]3[C@@]1(Cl)C2(Cl)Cl [DIELDRIN]
Not Active: IC50 [1] | Ki [1] | IC50 [2] | Ki [2] | IC50 (Interstitial collagenase) | IC50 (Progesterone receptor) | IC50 (Cytochrome P450 2C9) | Ki (Cytochrome P450 2C9) | IC50 [3] | IC50 (Cytochrome P450 2C19) | Ki (Cytochrome P450 2C19) | IC50 [4] | Ki [4]

c1ccc(Cn2ccnc2)cc1
Not Active: IC50 [1] | Ki [1] | IC50 [2] | Ki [2] | IC50 (Interstitial collagenase) | IC50 (Progesterone receptor) | IC50 (Cytochrome P450 2C9) | Ki (Cytochrome P450 2C9) | IC50 [3] | IC50 (Cytochrome P450 2C19) | Ki (Cytochrome P450 2C19) | IC50 [4] | Ki [4]
